The target of assay [1] is T1, Estrogen receptor (Mus musculus) (UniProt P19785).
T1 sequence (whole entry): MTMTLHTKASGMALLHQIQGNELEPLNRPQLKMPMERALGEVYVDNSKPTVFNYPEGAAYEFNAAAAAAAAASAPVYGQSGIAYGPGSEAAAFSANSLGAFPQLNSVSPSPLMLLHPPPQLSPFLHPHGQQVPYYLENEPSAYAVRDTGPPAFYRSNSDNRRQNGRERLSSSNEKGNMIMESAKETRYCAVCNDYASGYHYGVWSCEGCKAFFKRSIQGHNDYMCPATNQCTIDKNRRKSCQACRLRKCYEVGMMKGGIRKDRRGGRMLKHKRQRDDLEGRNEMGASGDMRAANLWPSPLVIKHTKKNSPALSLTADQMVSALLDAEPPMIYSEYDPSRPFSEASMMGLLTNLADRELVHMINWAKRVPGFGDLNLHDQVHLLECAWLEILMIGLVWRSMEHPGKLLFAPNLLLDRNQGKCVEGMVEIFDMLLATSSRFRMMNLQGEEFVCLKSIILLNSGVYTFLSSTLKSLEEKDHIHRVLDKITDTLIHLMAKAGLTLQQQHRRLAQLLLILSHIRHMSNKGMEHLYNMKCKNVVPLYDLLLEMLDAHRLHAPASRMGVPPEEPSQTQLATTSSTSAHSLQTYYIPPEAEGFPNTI
Description: Bone mineral density of compound was determined in vivo against estrogen receptor alpha

In another assay the target is T2, Estrogen receptor (Homo sapiens, UniProt P03372).
T2 sequence (P03372 whole entry): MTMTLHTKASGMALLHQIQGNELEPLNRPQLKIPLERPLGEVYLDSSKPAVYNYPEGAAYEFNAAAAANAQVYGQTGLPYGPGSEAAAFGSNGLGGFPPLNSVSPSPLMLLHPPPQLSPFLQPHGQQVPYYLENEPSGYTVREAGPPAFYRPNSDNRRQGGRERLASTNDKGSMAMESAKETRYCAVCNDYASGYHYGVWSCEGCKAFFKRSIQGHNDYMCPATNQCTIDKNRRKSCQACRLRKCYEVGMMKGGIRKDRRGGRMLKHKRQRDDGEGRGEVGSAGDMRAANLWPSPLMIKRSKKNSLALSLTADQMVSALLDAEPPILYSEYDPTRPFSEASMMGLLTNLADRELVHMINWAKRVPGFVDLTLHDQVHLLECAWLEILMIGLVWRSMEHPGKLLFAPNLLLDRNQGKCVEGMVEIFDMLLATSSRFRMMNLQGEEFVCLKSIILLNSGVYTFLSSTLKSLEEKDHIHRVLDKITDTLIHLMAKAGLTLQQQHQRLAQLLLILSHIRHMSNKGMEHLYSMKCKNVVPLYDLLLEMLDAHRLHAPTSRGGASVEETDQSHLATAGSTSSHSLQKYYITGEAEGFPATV

In assay [2] the target is T1, Estrogen receptor (Mus musculus). The settings on record: Uterus.
Description: Uterine weight assay of compound was determined in vivo against estrogen receptor alpha
For another assay, the target named is Estrogen receptor beta (Homo sapiens, UniProt Q92731). The assay can be described thus: Inhibition of estrogen receptor beta.
Chain of Estrogen receptor beta (Q92731 whole entry): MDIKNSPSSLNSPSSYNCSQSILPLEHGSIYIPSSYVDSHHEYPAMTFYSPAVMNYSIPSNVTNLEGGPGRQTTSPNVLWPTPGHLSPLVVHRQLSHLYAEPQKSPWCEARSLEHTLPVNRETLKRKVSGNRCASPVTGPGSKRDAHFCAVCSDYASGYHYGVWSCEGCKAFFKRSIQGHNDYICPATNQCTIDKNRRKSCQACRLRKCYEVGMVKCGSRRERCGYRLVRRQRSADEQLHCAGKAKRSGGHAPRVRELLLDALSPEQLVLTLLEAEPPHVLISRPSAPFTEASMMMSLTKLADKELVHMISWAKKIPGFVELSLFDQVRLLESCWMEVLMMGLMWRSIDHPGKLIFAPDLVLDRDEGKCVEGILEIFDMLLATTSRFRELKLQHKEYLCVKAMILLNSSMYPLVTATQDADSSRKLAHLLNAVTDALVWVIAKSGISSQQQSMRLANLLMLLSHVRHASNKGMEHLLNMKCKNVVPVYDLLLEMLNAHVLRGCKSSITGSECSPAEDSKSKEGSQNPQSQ

In assay [1], `O=C(c1ccc(N2CCN(c3ccc(Cl)cc3)CC2)cc1)c1c(-c2ccc(O)cc2)sc2cc(O)ccc12` displayed a Bone mineral density of 482 mg/cubic cm. For the same compound, the values for the IC50 on Estrogen receptor and on Estrogen receptor beta were 0.22 nM and 9.07 nM, respectively. The compound further displayed a Uterine weight in assay [2] of 30.5 mg.
As for `O=C(c1ccc(N2CCN(C(=O)c3ccncc3)CC2)cc1)c1c(-c2ccc(O)cc2)sc2cc(O)ccc12`, the IC50 is 14.5 nM against Estrogen receptor and 93.6 nM at Estrogen receptor beta.
Taken in the same sequence, the figures for `CCCN1CCN(c2ccc(C(=O)c3c(-c4ccc(O)cc4)sc4cc(O)ccc34)cc2)CC1` were 1.43 nM and 29.4 nM.
The matching figures for `O=C(c1ccc(N2CCN(C3CCCC3)CC2)cc1)c1c(-c2ccc(O)cc2)sc2cc(O)ccc12`: 1.08 nM and 18.1 nM.
Taken in the same sequence, the figures for `O=C(c1ccc(N2CCN(C(=O)c3ccccc3O)CC2)cc1)c1c(-c2ccc(O)cc2)sc2cc(O)ccc12` were 3.05 nM and 7.92 nM.
Take `O=C(c1ccc(N2CCN(C(=O)c3ccccc3[N+](=O)[O-])CC2)cc1)c1c(-c2ccc(O)cc2)sc2cc(O)ccc12`: the figures for the 50% inhibitory concentration (IC50) against Estrogen receptor and against Estrogen receptor beta were 3.58 nM and 12.9 nM, respectively.
Taken in the same sequence, the figures for `O=C(c1ccc(N2CCN(Cc3ccccc3)CC2)cc1)c1c(-c2ccc(O)cc2)sc2cc(O)ccc12` were 0.97 nM and 5.53 nM.
The matching figures for `O=C(c1ccc(N2CCN(C(=O)c3ccco3)CC2)cc1)c1c(-c2ccc(O)cc2)sc2cc(O)ccc12`: 2.65 nM and 20.1 nM.
Taken in the same sequence, the figures for `O=C(c1ccc(N2CCN(C(=O)c3ccc([N+](=O)[O-])cc3)CC2)cc1)c1c(-c2ccc(O)cc2)sc2cc(O)ccc12` were 2.15 nM and 1.27 nM.
With `Cc1ccc(C(=O)N2CCN(c3ccc(C(=O)c4c(-c5ccc(O)cc5)sc5cc(O)ccc45)cc3)CC2)cc1`, the IC50 on Estrogen receptor turned out to be 2.74 nM; against Estrogen receptor beta it was 4.94 nM.
The matching figures for `O=C(c1ccc(N2CCN(C(=O)c3ccccc3Cl)CC2)cc1)c1c(-c2ccc(O)cc2)sc2cc(O)ccc12`: 1.72 nM and 3.21 nM.
The matching figures for `O=C(c1ccc(N2CCN(C(=O)c3ccccc3)CC2)cc1)c1c(-c2ccc(O)cc2)sc2cc(O)ccc12`: 0.86 nM and 25.3 nM.
In assay [1], `O=C(c1ccc(N2CCN(C(=O)c3cccc(Cl)c3)CC2)cc1)c1c(-c2ccc(O)cc2)sc2cc(O)ccc12` registered a Bone mineral density of 432 mg/cubic cm. Moreover, the results for the half-inhibitory concentration (IC50) against Estrogen receptor and against Estrogen receptor beta were 0.46 nM and 3.7 nM, respectively. In assay [2], this compound gave a Uterine weight of 29.3 mg.
As for `Cc1ccccc1C(=O)N1CCN(c2ccc(C(=O)c3c(-c4ccc(O)cc4)sc4cc(O)ccc34)cc2)CC1`, the IC50 at Estrogen receptor stood at 3.94 nM; at Estrogen receptor beta, 17.7 nM.
For the compound `O=C(c1ccc(N2CCN(Cc3ccc([N+](=O)[O-])cc3)CC2)cc1)c1c(-c2ccc(O)cc2)sc2cc(O)ccc12`, the 50% inhibitory concentration (IC50) at Estrogen receptor beta stood at 14.2 nM.
In assay [1], `CC(C)N1CCN(c2ccc(C(=O)c3c(-c4ccc(O)cc4)sc4cc(O)ccc34)cc2)CC1` came in with a Bone mineral density of 541 mg/cubic cm. The IC50 at Estrogen receptor was determined as 0.28 nM; at Estrogen receptor beta it was 33.9 nM. Further, the Uterine weight in assay [2] turned out to be 38.8 mg.
Regarding `Cc1cc(C)nc(N2CCN(c3ccc(C(=O)c4c(-c5ccc(O)cc5)sc5cc(O)ccc45)cc3)CC2)n1`, the half-maximal inhibitory concentration (IC50) at Estrogen receptor worked out at 2.12 nM; at Estrogen receptor beta it was 66.5 nM.
Taken in the same sequence, the figures for `Cc1cccc(C(=O)N2CCN(c3ccc(C(=O)c4c(-c5ccc(O)cc5)sc5cc(O)ccc45)cc3)CC2)c1` were 0.27 nM and 12.5 nM.
Taken in the same sequence, the figures for `O=C(c1ccc(N2CCN(C(=O)c3ccc(Cl)cc3)CC2)cc1)c1c(-c2ccc(O)cc2)sc2cc(O)ccc12` were 0.78 nM and 4.02 nM.
Taken in the same sequence, the figures for `O=C(c1ccc(N2CCN(C(=O)c3cccc(O)c3)CC2)cc1)c1c(-c2ccc(O)cc2)sc2cc(O)ccc12` were 1.39 nM and 19.8 nM.

For orientation: IC50 means the midpoint of a concentration-inhibition curve. Lower therefore signals inhibition by little substance.

The values are drawn from ChEMBL document CHEMBL1141904, “Benzothiophenes containing a piperazine side chain as selective ligands for the estrogen receptor alpha and their bioactivities in vivo” (Bioorg Med Chem Lett, 2005).
